Values of other authors as cited in patent US20180338982A1, “Cooperative Medication Combination Systems” (priority 2017, published 2018).

Conditions: in vivo

Compound: CCC(C)(C)C(=O)O[C@H]1C[C@@H](C)C=C2C=C[C@H](C)[C@H](CC[C@@H]3C[C@@H](O)CC(=O)O3)[C@H]21 [Simvastatin]
- Half-life: 2 h
